Data on 29 molecules can be found in US20240279205A1, “NOVEL BENZIMIDAZOLE DERIVATIVE” (Carna Biosciences, Inc., priority 2020, published 2024).

Experiment [1] deals with STING activation (IFN-β production in THP-1 cells). Description: Human IFN-β production inhibition test by cGAMP stimulation in THP-1 cells. Format: cell-based. Further details: IFN-β bioinhibitory activity: scale not given here. The settings on record: 2'3'-cGAMP transfection, 18 hours, IFN-β ELISA; for IC50: Homo sapiens, read-out: IFN-β bioinhibitory activity. In outline: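 PMA-primed (100 nM, overnight) THP-1 cells pretreated 1 h with compound at 0.001 to 1 μM (0.1% DMSO), then transfected with 0.12 μg/well 2′3′-cGAMP and cultured 18 hours. Supernatant IFN-β measured by ELISA; IC50 by regression against log concentration, normalised to cGAMP-only (100%) and unstimulated (0%) controls.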

The target in a further experiment is T1, human STING (hSTING) (Homo sapiens, UniProt Q86WV6).
T1 construct: host or cells: HEK-Blue ISG cells (HEK293-derived SEAP reporter line)
Description: Inhibition test of intracellular human STING (hSTING) pathway using SEAP reporter cells (HEK-Blue ISG), stimulation with Compound 3. Format: cell-based. Further details: hSTING inhibitory activity: scale not given here. The settings on record: Compound 3 10 nM stimulation, 21 hours. The method in brief: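 IC50 derived by regressing inhibition rate against log compound concentration (0.1 to 10 μM final, added 1 h before agonist), with 0% and 100% set by wells without and with 10 nM Compound 3. SEAP colour reaction read after 21 h stimulation of HEK-Blue ISG reporter cells.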

T1 sequence (Q86WV6 whole entry H232R): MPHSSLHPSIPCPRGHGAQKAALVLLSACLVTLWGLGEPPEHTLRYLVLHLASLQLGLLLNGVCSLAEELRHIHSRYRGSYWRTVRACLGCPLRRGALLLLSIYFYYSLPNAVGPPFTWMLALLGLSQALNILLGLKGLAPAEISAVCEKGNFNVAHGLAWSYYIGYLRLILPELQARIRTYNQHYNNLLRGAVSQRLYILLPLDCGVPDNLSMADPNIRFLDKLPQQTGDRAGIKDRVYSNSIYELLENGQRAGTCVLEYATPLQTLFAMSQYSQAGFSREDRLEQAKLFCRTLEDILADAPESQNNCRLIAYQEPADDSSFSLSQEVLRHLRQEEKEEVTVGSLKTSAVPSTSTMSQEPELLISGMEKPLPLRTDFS

Turning to `C#CCn1c(Nc2c[nH]c3ccc(Cl)cc23)nc2cc(OC(F)(F)F)ccc21` [Embodiment 253, N-(5-Chloro-1H-indol-3-yl)-1-(prop-2-yn-1-yl)-5-(trifluoromethoxy)-1H-benzo[d]imidazole-2-amine], the IFN-β bioinhibitory activity result in experiment [1] was “* *”. The hSTING inhibitory activity entry on human STING (hSTING) is given as “* * *”.

Turning to `Cn1c(Nc2c[nH]c3ccc(Cl)cc23)nc2cc(C(F)(F)F)c(F)cc21` [Embodiment 254, N-(5-Chloro-1H-indol-3-yl)-6-fluoro-1-methyl-5-(trifluoromethyl)-1H-benzo[d]imidazol-2-amine], the IFN-β bioinhibitory activity entry in experiment [1] is “* *”. The hSTING inhibitory activity entry at human STING (hSTING) is “* * *”.

For the molecule `CNn1c(Nc2c[nH]c3ccc(Cl)cc23)nc2cc(C(F)(F)F)ccc21.Cl` [Embodiment 255, N2-(5-Chloro-1H-indol-3-yl)-N1-methyl-5-(trifluoromethyl)-1H-benzo[d]imidazole-1,2-diamine hydrochloride], in experiment [1], the IFN-β bioinhibitory activity result was “* *”. Moreover, the hSTING inhibitory activity entry at human STING (hSTING) is “* * *”.

As to `Cc1ccc2[nH]cc(Nc3nc4cc(C(F)(F)F)cc(F)c4n3C)c2c1` [Embodiment 256, 7-fluoro-1-methyl-N-(5-methyl-1H-indol-3-yl)-5-(trifluoromethyl)-1H-benzo[d]imidazol-2-amine], the IFN-β bioinhibitory activity entry in experiment [1] is given as “* *”. The hSTING inhibitory activity entry at human STING (hSTING) is recorded as “* * *”.

Consider `Cn1c(Nc2c[nH]c3ccc(C#N)cc23)nc2cc(C(F)(F)F)cc(F)c21` [Embodiment 257, 3-{ [7-fluoro-1-methyl-5-(trifluoro methyl)-1H-benzo[d]imidazol-2-yl]amino}-1H-indole-5-carbonitrile], for which the IFN-β bioinhibitory activity result in experiment [1] was “* *”. Also, the hSTING inhibitory activity entry on human STING (hSTING) is “* * *”.

For the molecule `CN(C)n1c(Nc2c[nH]c3ccc(Cl)cc23)nc2cc(OC(F)(F)F)ccc21` [Embodiment 258, N2-(5-Chloro-1H-indol-3-yl)-N1, N1-dimethyl-5-(trifluoromethoxy)-1H-benzo[d]imidazole-1,2-diamine], the IFN-β bioinhibitory activity entry in experiment [1] is “* *”. Further, the hSTING inhibitory activity result at human STING (hSTING) was “* * *”.

For the molecule `N#CCCn1c(Nc2c[nH]c3ccc(Cl)cc23)nc2cc(C(F)(F)F)ccc21` [Embodiment 259, 3-{2-[(5-chloro-1H-indol-3-yl)amino]-5-(trifluoromethyl)-1H-benzo [d]imidazol-1-yl]propanenitrile], the IC50 in experiment [1] was 100 to 1000 nM. Further, the hSTING inhibitory activity result on human STING (hSTING) is “* *”.

For the molecule `OCCCn1c(Nc2c[nH]c3ccc(Cl)cc23)nc2cc(C(F)(F)F)ccc21` [Embodiment 260, 3-{2-[(5-Chloro-1H-indol-3-yl)amino]-5-(trifluoromethyl)-1H-benzo [d]imidazol-1-yl]propan-1-oar], the IC50 in experiment [1] lay in the range of 100 to 1000 nM. Besides, the hSTING inhibitory activity result at human STING (hSTING) is on record as “* *”.

Consider `Cn1c(Nc2c[nH]c3cc(F)c(F)cc23)nc2cc(C(F)(F)F)cc(F)c21` [Embodiment 261, N-(5,6-difluoro-1H-indol-3-yl)-7-fluoro-1-methyl-5-(trifluoromethyl)-1H-benzo[d]imidazol-2-amine], for which, in experiment [1], the IFN-β bioinhibitory activity result is “* *”. Besides, the hSTING inhibitory activity result on human STING (hSTING) is given as “* * *”.

Take `Cn1c(Nc2c[nH]c3cc(F)c(Cl)cc23)nc2cc(C(F)(F)F)ccc21` [Embodiment 262, N-(5-Chloro-6-fluoro-1H-indol-3-yl)-1-methyl-5-(trifluoromethyl)-1 H-benzo[d]imidazol-2-amine]: the IFN-β bioinhibitory activity result in experiment [1] is given as “* *”. Also, the hSTING inhibitory activity result at human STING (hSTING) is reported as “* * *”.

On to `COc1cc2c(cc1C(F)(F)F)nc(Nc1c[nH]c3ccc(Cl)cc13)n2C` [Embodiment 263, N-(5-Chloro-1H-indol-3-yl)-6-methoxy-1-methyl-5-(trifluoromethyl)-1H-benzo[d]imidazol-2-amine], for which, in experiment [1], the IC50 fell in the range of 100 to 1000 nM. Further, at human STING (hSTING), the hSTING inhibitory activity entry is given as “* *”.

With `Cn1c(Nc2c[nH]c3ccc(Cl)cc23)nc2cc(C(F)(F)F)cc(C#N)c21` [Embodiment 264, 2-[(5-Chloro-1H-indol-3-yl)amino]-1-methyl-5-(trifluoromethyl)-1H-benzo[d]imidazole-7-carbonitrile], the IC50 in experiment [1] is 100 to 1000 nM. Also, the hSTING inhibitory activity entry at human STING (hSTING) is “* * *”.

For `CN(C)n1c(Nc2c[nH]c3ccc(Cl)cc23)nc2cc(Cl)ccc21` [Embodiment 265, 5-Chloro-N2-(5-chloro-1H-indol-3-yl)-N1,N1-dimethyl-1H-benzo [d]imidazole-1,2-diamine], the IFN-β bioinhibitory activity result in experiment [1] is listed as “* *”. For the same molecule, the hSTING inhibitory activity result at human STING (hSTING) is given as “* * *”.

On to `CN(C)n1c(Nc2c[nH]c3ccc(Cl)cc23)nc2ccc(C(F)(F)F)cc21` [Embodiment 266, N2-(5-Chloro-1H-indol-3-yl)-N1, N1-dimethyl-6-(trifluoromethyl)-1H-benzo[d]imidazole-1,2-diamine], for which, in experiment [1], the IC50 lay in the range of 100 to 1000 nM. Moreover, the hSTING inhibitory activity entry on human STING (hSTING) was “* *”.

For the molecule `Fc1cc(C(F)(F)F)cc2nc(Nc3c[nH]c4ccc(Cl)cc34)[nH]c12` [Embodiment 267, N-(5-Chloro-1H-indol-3-yl)-7-fluoro-5-(trifluoromethyl)-1H-benzo [d]imidazol-2-amine], in experiment [1], the IC50 was 100 to 1000 nM. For the same molecule, at human STING (hSTING), the hSTING inhibitory activity result is listed as “* *”.

`FC(F)(F)c1ccc2[nH]c(Nc3c[nH]c4ccc(Cl)cc34)nc2c1` [Embodiment 268, N-(5-Chloro-1H-indol-3-yl)-5-(trifluoromethyl)-1H-benzo[d]imidazol-2-amine]: the IFN-β bioinhibitory activity entry in experiment [1] is given as “* *”. Further, at human STING (hSTING), the hSTING inhibitory activity result is reported as “* *”.

For `Nn1c(Nc2c[nH]c3ccc(Cl)cc23)nc2cc(C(F)(F)F)cc(F)c21` [Embodiment 269, N2-(5-Chloro-1H-indol-3-yl)-7-fluoro-5-(trifluoromethyl)-1H-benzo[d]imidazole-1,2-diamine], in experiment [1], the IFN-β bioinhibitory activity result is “* *”. Also, at human STING (hSTING), the hSTING inhibitory activity entry was “* * *”.

As for `Brc1ccc2[nH]cc(Nc3nc4cc(Oc5ccccc5)ccc4[nH]3)c2c1` [Example 3, N-(5-bromo-1H-indol-3-yl)-5-phenoxy-1H-benzo[d]imidazol-2-amine], the IFN-β bioinhibitory activity result in experiment [1] is given as “* *”. The hSTING inhibitory activity entry on human STING (hSTING) was “* *”.

Consider `Clc1ccc2[nH]c(Nc3c[nH]c4ccc(Br)cc34)nc2c1` [Example 4, N-(5-bromo-1H-indol-3-yl)-5-chloro-1H-benzo[d]imidazol-2-amine], for which the IFN-β bioinhibitory activity result in experiment [1] is “* *”. Further, the hSTING inhibitory activity entry at human STING (hSTING) is recorded as “* * *”.

`COc1ccc2[nH]c(Nc3c[nH]c4ccc(Br)cc34)nc2c1` [Example 6, N-(5-bromo-1H-indol-3-yl)-5-methoxy-1H-benzo[d]imidazol-2-amine]: in experiment [1], the IC50 fell in the range of 100 to 1000 nM. The hSTING inhibitory activity result at human STING (hSTING) is “* *”.

Take `Brc1ccc2[nH]c(Nc3c[nH]c4ccc(Br)cc34)nc2c1` [Example 7, 5-bromo-N-(5-bromo-1H-indol-3-yl)-1H-benzo[d]imidazol-2-amine]: in experiment [1], the IFN-β bioinhibitory activity result is reported as “* *”. In addition, the hSTING inhibitory activity entry on human STING (hSTING) was “* * *”.

On to `FC(F)(F)c1ccc2[nH]c(Nc3c[nH]c4ccc(Br)cc34)nc2c1` [Example 8, N-(5-bromo-1H-indol-3-yl)-5-(trifluoromethyl)-1H-benzo[d]imidazol-2-amine], for which the IFN-β bioinhibitory activity entry in experiment [1] was “* *”. The hSTING inhibitory activity result at human STING (hSTING) is reported as “* *”.

Regarding `Brc1ccc2[nH]cc(Nc3nc4cc(Oc5ccccc5)ccc4[nH]3)c2n1` [Example 12, N-(5-bromo-1H-pyrrolo[3,2-b]pyridin-3-yl)-5-phenoxy-1H-benzo[d]imidazol-2-amine], in experiment [1], the IC50 was 100 to 1000 nM. Besides, on human STING (hSTING), the hSTING inhibitory activity result was “* *”.

As for `Cn1c(Nc2c[nH]c3ccc(Br)cc23)nc2ccccc21` [Example 18, N-(5-bromo-1H-indol-3-yl)-1-methyl-1H-benzo[d]imidazol-2-amine], the IC50 in experiment [1] was no less than 1000 nM. For the same molecule, the hSTING inhibitory activity result on human STING (hSTING) was “* *”.

On to `N#Cc1ccc2[nH]c(Nc3c[nH]c4ccc(Br)cc34)nc2c1` [Example 19, 2-[(5-bromo-1H-indol-3-yl)amino]-1H-benzo[d]imidazole-5-carbonitrile], for which the IC50 in experiment [1] was 100 to 1000 nM. Further, the hSTING inhibitory activity result at human STING (hSTING) is “* *”.

Turning to `Brc1ccc2[nH]cc(Nc3nc4c(Br)cccc4[nH]3)c2c1` [Example 24, 4-bromo-N-(5-bromo-1H-indol-3-yl)-1H-benzo[d]imidazol-2-amine], the IFN-β bioinhibitory activity entry in experiment [1] is “* *”. Also, on human STING (hSTING), the hSTING inhibitory activity entry is “* *”.

With `Fc1cccc2[nH]c(Nc3c[nH]c4ccc(Br)cc34)nc12` [Example 25, N-(5-bromo-1H-indol-3-yl)-4-fluoro-1H-benzo[d]imidazol-2-amine], the IFN-β bioinhibitory activity result in experiment [1] is given as “* *”. Further, on human STING (hSTING), the hSTING inhibitory activity result is “* *”.

As to `CN(C)c1cccc(Oc2ccc3[nH]c(Nc4c[nH]c5ccc(Br)cc45)nc3c2)c1` [Example 26, N-(5-bromo-1H-indol-3-yl)-5-[3-(dimethylamino)phenoxy]-1H-benzo[d]imidazol-2-amine], the IFN-β bioinhibitory activity result in experiment [1] is recorded as “* *”. At human STING (hSTING), the hSTING inhibitory activity entry is on record as “* *”.

Consider `FC(F)(F)c1ccc2[nH]c(Nc3c[nH]c4ccc(Br)nc34)nc2c1` [Example 31, N-(5-bromo-1H-pyrrolo[3,2-b]pyridin-3-yl)-5-(trifluoromethyl)-1H-benzo[d]imidazol-2-amine], for which the IFN-β bioinhibitory activity result in experiment [1] is reported as “* * *”. In addition, at human STING (hSTING), the hSTING inhibitory activity entry is “* *”.
